Measured values taken from paper PMC8829087 (The Journal of Biological Chemistry, 2021).

What was measured:
GLP-1R G168^1.63S = conditions: cited from earlier work
Excerpt: (§1) Previous in vivo characterizations of missense variants in the GLP-1R and GIPR have pointed to associations between receptor impairments and clinical phenotypes. One example is the more frequently occurring variant of GIPR E354^6.53Q (gnomAD MAF: 0.2). […] Heterozygous carriers of the rare missense variant T14 ...

[1] = tested on: GLP-1R variants P7^ECDL, R44^ECDH and L260^ICL2P; conditions: cited from earlier work
Excerpt: as §1

GLP-1R T149^1.44M = conditions: cited from earlier work
Excerpt: as §1

[2] = tested on: patients with type 2 diabetes, GLP-1R G168^1.63S carriers; conditions: cited from earlier work
Excerpt: as §1

[3] = biological target: human glucagon receptor missense variant R225^3.30H (human) (UniProt P47871)
Chain of UniProt P47871 (P47871 other isoform, or with tags, fused parts or gaps mutant): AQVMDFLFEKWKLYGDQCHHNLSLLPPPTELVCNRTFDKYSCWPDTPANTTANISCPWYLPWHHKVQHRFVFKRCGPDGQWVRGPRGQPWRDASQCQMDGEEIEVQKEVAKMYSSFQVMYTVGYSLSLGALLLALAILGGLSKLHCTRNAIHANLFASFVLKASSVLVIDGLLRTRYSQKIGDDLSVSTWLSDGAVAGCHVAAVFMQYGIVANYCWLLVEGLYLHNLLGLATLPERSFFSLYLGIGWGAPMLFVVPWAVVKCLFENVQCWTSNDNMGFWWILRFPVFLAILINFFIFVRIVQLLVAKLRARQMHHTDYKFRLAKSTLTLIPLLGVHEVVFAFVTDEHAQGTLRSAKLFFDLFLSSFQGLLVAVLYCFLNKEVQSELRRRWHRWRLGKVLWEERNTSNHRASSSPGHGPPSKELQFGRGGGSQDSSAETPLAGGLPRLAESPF

For glucagon-like peptide-1 [GLP-1], the “receptor signaling and binding affinity of GLP-1” value (GLP-1R G168^1.63S) is listed as “preserved receptor signaling and binding affinity”, the “GLP-1 binding and receptor signaling” value [1] is listed as “wildtype-like GLP-1 binding and receptor signaling” and the “binding capacity of GLP-1” value (GLP-1R T149^1.44M) is listed as “lower binding capacity”. The receptor signaling (GLP-1R T149^1.44M) was “impaired receptor signaling capabilities”.
In the case of “liraglutide: treatment with liraglutide of patients with type 2 diabetes (HAEGTFTSDVSSYLEGQAAKEFIAWLVRGRG; chains of the INN, looked up)”, the “weight loss and fat mass” value [2] is listed as “improved weight loss and lower fat mass”.
Substance “β-arrestin-2 (Rluc8-Arr3-Sp2) (from UniProt P32121 1-409) (natural protein)” has a potency (EC50) of glucagon in β-arrestin-2 recruitment, BRET in HEK293, fold decrease against wildtype [3] of 6 fold.
